This note sets out measurements from ChEMBL document CHEMBL1759870, “Identification, structural properties and chelating capacity of miltipolone as a broad-spectrum inhibitor to cancer cells” (Eur J Med Chem, 2011).

The subject of one experiment is HT-1080. Nature of the experiment: Antiproliferative activity against human HT1080 cells after 96 hrs by MTT assay. The class given is functional, cell-based. As to conditions: HT-1080, 96 h. (Tetrazolium dyes change colour on reduction, which living cells bring about.)
In another experiment the test system is HeLa. Briefly: Antiproliferative activity against human HeLa cells after 96 hrs by MTT assay. The format is functional, cell-based.
Another experiment concerns NCI-N87. Briefly: Antiproliferative activity against human NCI-N87 cells after 96 hrs by MTT assay. The format is functional, cell-based. Conditions: NCI-N87, 96 h.
The subject of a further experiment is Bel-7402. Nature of the experiment: Antiproliferative activity against human Bel7402 cells after 96 hrs by MTT assay. The format is functional, cell-based. As to conditions: Bel-7402, 96 h.
The subject of a further experiment is A-375. Nature of the experiment: Antiproliferative activity against human A375 cells after 96 hrs by MTT assay. The class given is functional, cell-based. As to conditions: A-375, 96 h.
The test system of the next experiment is PANC-1. Briefly: Antiproliferative activity against human PANC1 cells after 96 hrs by MTT assay. As to conditions: PANC-1, 96 h. The class given is functional, cell-based.
Another experiment concerns HUVEC. Nature of the experiment: Antiproliferative activity against human HUVEC cells after 96 hrs by MTT assay. The class given is cell-based.
The next experiment has as its system Jurkat. Briefly: Antiproliferative activity against human Jurkat cells after 96 hrs by MTT assay. The format is functional, cell-based.
For another experiment, the system named is HepG2. Briefly: Antiproliferative activity against human HepG2 cells after 96 hrs by MTT assay. The format is functional, cell-based. As to conditions: HepG2, 96 h.

pIC50: −log10 of the molar value.

As for `CC(=O)O[C@H]1C(=O)[C@@]2(C)[C@H]([C@H](OC(=O)c3ccccc3)[C@]3(O)C[C@H](OC(=O)[C@H](O)[C@@H](NC(=O)c4ccccc4)c4ccccc4)C(C)=C1C3(C)C)[C@]1(OC(C)=O)CO[C@@H]1C[C@@H]2O` [PACLITAXEL], the negative-log IC50 (pIC50) was 8.92 in the experiment with HT-1080; 7.00 in the experiment with HeLa; 8.23 in the experiment on NCI-N87; 6.24 in the experiment on Bel-7402; 8.34 with A-375; 6.42 in the experiment on PANC-1.
As for `CO[C@@H]1[C@H](OC(=O)NC(=O)CCl)CC[C@]2(CO2)[C@H]1[C@@]1(C)O[C@@H]1CC=C(C)C` [O-CHLOROACETYLCARBAMOYLFUMAGILLOL], the pIC50 in the experiment on HUVEC is 9.12.
`COc1cc([C@@H]2c3cc4c(cc3[C@@H](O[C@@H]3O[C@@H]5CO[C@@H](C)O[C@H]5[C@H](O)[C@H]3O)[C@H]3COC(=O)[C@H]23)OCO4)cc(OC)c1O` [ETOPOSIDE] gave a pIC50 in the experiment with HT-1080 of 6.12.
With `COc1cccc2c1C(=O)c1c(O)c3c(c(O)c1C2=O)C[C@@](O)(C(=O)CO)C[C@@H]3O[C@H]1C[C@H](N)[C@H](O)[C@H](C)O1` [DOXORUBICIN], the pIC50 in the experiment on Jurkat is 7.43; with NCI-N87 it was 6.38; in the experiment on HepG2, 7.72; in the experiment on HUVEC, 7.52.

What is called pIC50 is −log10 of the IC50, conventionally taken in molar units. Higher therefore signals a low IC50.
